From PMC9854762, “Antibiofilm and Anti-Quorum-Sensing Activities of Novel Pyrazole and Pyrazolo[1,5-a]pyrimidine Derivatives as Carbonic Anhydrase I and II Inhibitors: Design, Synthesis, Radiosterilization, and Molecular Docking Studies” (Antibiotics, 2023)
Values after ≈ are worked out from the molar mass of the structure shown. Like-named read-outs stand apart in the source and are kept apart here.

Tests used:
A. baumannii DH-243 [1] = assay: Agar well-diffusion assay; assay type: cell-based; settings: Acinetobacter baumannii
Procedure: (§1) The synthesized compounds were initially screened for their in vitro antibacterial activity against the different Gram-positive and Gram-negative bacteria, tested using the agar well-diffusion assay. The turbidity of the bacterial suspensions was established to the 0.5 McFarland turbidity standard. The activity was performed on TS agar plates. The bacteria were spread on the surface of the agar plates, and 10 mm wells were screwed into the agar plates. The assay was performed under aseptic conditions. An aliquot of 50 µL of each tested compound (10 mM) was added to the wells, and the plates were incubated overnight at 37 °C. Both Erythromycin and Amikacin antibiotic disks were used as positive control, while DMSO solvent was used as a negative control in this study. The diameters of inhibition zones were measured and recorded in mm. A comparative study of the synthesized compounds was determined. The experiment was performed in triplicates.

E. coli DH-5987 [2] = assay: Agar well-diffusion assay; assay type: cell-based; settings: Escherichia coli, DH5987, 50 µL of 10 mM per well, read-out: Diameter of Inhibition Zones (AZOI)
Procedure: as §1

P. aeruginosa DH-5698 [3] = assay: Agar well-diffusion assay; assay type: cell-based, Pseudomonus aeruginosa; settings: Pseudomonas aeruginosa
Procedure: as §1

A. baumannii DH-243 [4] = assay: Broth microdilution MIC/MBC; assay type: cell-based, Acinetobacter baumannii; settings: for MIC: Acinetobacter baumannii, DH243, 24 h, read-out: MIC (Mean ± SEM); for MBC/MIC: value in brackets
Procedure: (§2) The broth microdilution method was taken as a basis to detect the MICs of pyrazole compounds against tested clinical isolates, according to the Clinical Laboratory and Standards Institute guidelines. The broth cultures were used to prepare the bacterial inoculums, and the suspensions were adjusted to the standard 0.5 McFarland turbidity. Stock solutions of the synthesized pyrazoles were prepared in pure DMSO and further serially diluted with TS broth in the concentration range from 128 µg/mL to 0.0625 µg/mL. A well containing noninoculated TS broth, free of any antimicrobial agents, was also included to ensure the medium sterility, while Erythromycin and Amikacin served as positive controls. Bacterial growth was determined by adding 20 µL of 0.5% TTC (2,3,5-triphenyltetrazolium chloride) aqueous solution. […] All experiments were repeated three times. The bactericidal effect from each concentration of the pyrazole and pyrazolo[1,5-a]pyrimidine derivatives showing growth inhibition was further studied. For this study, a loopful of 5 µL was taken from each no-visible growth tube and streaked onto plates of TS agar.

E. coli DH-5987 [5] = assay: Broth microdilution MIC/MBC; assay type: cell-based, Escherichia coli; settings: for MBC/MIC: value in brackets; for MIC: read-out: MIC (Mean ± SEM)
Procedure: as §2

P. aeruginosa DH-5698 [6] = assay: Broth microdilution MIC/MBC; assay type: cell-based, Pseudomonus aeruginosa; settings: for MIC: Pseudomonas aeruginosa, DH5698, 24 h, read-out: MIC (Mean ± SEM); for MBC/MIC: value in brackets
Procedure: as §2

E. faecalis DH-5478 [7] = assay: Agar well-diffusion assay; assay type: cell-based; settings: Enterococcus faecalis, DH5478; E. faecalis DH-5478; 50 µL of 10 mM per well; read-out: Diameter of Inhibition Zones (AZOI)
Procedure: as §1

S. aureus DH-432 [8] = assay: Agar well-diffusion assay; assay type: cell-based; settings: Staphylococcus aureus, DH432; S. aureus DH-432; 50 µL of 10 mM per well; read-out: Diameter of Inhibition Zones (AZOI)
Procedure: as §1

S. pyogenes DH-3467 [9] = assay: Agar well-diffusion assay; assay type: cell-based; settings: Streptococcus pyogenes, DH3467; S. pyogenes DH-3467; 50 µL of 10 mM per well; read-out: Diameter of Inhibition Zones (AZOI)
Procedure: as §1

E. faecalis DH-5478 [10] = assay: Broth microdilution MIC/MBC; assay type: cell-based, Enterococcus faecalis; settings: for MIC: Enterococcus faecalis, DH5478, 24 h, read-out: MIC (Mean ± SEM); for MBC/MIC: value in brackets
Procedure: as §2

S. aureus DH-432 [11] = assay: Broth microdilution MIC/MBC; assay type: cell-based, Staphylococcus aureus; settings: for MIC: Staphylococcus aureus, DH432, 24 h, read-out: MIC (Mean ± SEM); for MBC/MIC: value in brackets
Procedure: as §2

S. pyogenes DH-3467 [12] = assay: Broth microdilution MIC/MBC; assay type: cell-based, Streptococcus pyogenes; settings: for MIC: Streptococcus pyogenes, DH3467, 24 h, read-out: MIC (Mean ± SEM); for MBC/MIC: value in brackets
Procedure: as §2

[13] = Escherichia coli, DH5987, E. coli DH-5987, 24 h
[14] = DH243, A. baumannii DH-243, 50 µL of 10 mM per well, read-out: Diameter of Inhibition Zones (AZOI)
[15] = DH5698, P. aeruginosa DH-5698, 50 µL of 10 mM per well, read-out: Diameter of Inhibition Zones (AZOI)

| SMILES | zone of inhibition at 10000 µM (E. coli DH-5987 [2]) [mm] | MIC (A. baumannii DH-243 [4]) [µg/mL] | MBC/MIC (A. baumannii DH-243 [4]) | MBC/MIC (E. coli DH-5987 [5]; E. coli DH-5987) | MIC (E. coli DH-5987 [5]; [13]) [µg/mL] | MIC (P. aeruginosa DH-5698 [6]) [µg/mL] | MBC/MIC (P. aeruginosa DH-5698 [6]) | zone of inhibition at 10000 µM (A. baumannii DH-243 [1]; [14]) [mm] | zone of inhibition at 10000 µM (E. faecalis DH-5478 [7]) [mm] | zone of inhibition at 10000 µM (S. aureus DH-432 [8]) [mm] | zone of inhibition at 10000 µM (S. pyogenes DH-3467 [9]) [mm] | zone of inhibition at 10000 µM (P. aeruginosa DH-5698 [3]; [15]) [mm] | MIC (E. faecalis DH-5478 [10]) [µg/mL] | MBC/MIC (E. faecalis DH-5478 [10]) | MIC (S. aureus DH-432 [11]) [µg/mL] | MBC/MIC (S. aureus DH-432 [11]) | MIC (S. pyogenes DH-3467 [12]) [µg/mL] | MBC/MIC (S. pyogenes DH-3467 [12]) | melting point [°C] | further results |
| --- | --- | --- | --- | --- | --- | --- | --- | --- | --- | --- | --- | --- | --- | --- | --- | --- | --- | --- | --- | --- |
| NCC[C@H](O)C(=O)N[C@@H]1C[C@H](N)[C@@H](O[C@H]2O[C@H](CN)[C@@H](O)[C@H](O)[C@H]2O)[C@H](O)[C@H]1O[C@H]1O[C@H](CO)[C@@H](O)[C@H](N)[C@H]1O [AK, Amikacin, reference compound] | 11 | 128 ± 0.2 (≈ 219 µM) | 4 | 4 | 32 (≈ 54.6 µM) | 128 ± 0.1 (≈ 219 µM) | 4 |  |  |  |  |  |  |  |  |  |  |  |  | zone of inhibition at 10000 µM (A. baumannii DH-243 [1]; DH243, read-out: Diameter of Inhibition Zones (AZOI)): 13 mm; zone of inhibition at 10000 µM (P. aeruginosa DH-5698 [3]; DH5698, read-out: Diameter of Inhibition Zones (AZOI)): 14 mm; MIC (Mean ± SEM) (E. coli DH-5987 [5]; E. coli DH-5987, 24 h): 32 ± 0.2 µg/mL (≈ 54.6 µM); MBC (E. coli DH-5987 [5]; Escherichia coli, DH5987, E. coli): 128 µg/mL (≈ 219 µM) |
| CCOC(=O)c1ccc(N=Nc2c(N)nn(-c3ccccc3)c2N)cc1 [Compound 3b, Ethyl 4-((3,5-diamino-1-phenyl-1H-pyrazol-4-yl)diazenyl)benzoate] | 26.9 | 1 ± 0.3 (≈ 2.85 µM) | 0.5 | 1 | 0.5 ± 0.2 (≈ 1.43 µM) | 1 ± 0.2 (≈ 2.85 µM) | 0.5 | 23.1 | 24.4 | 25.2 | 24.7 | 25.1 | 0.75 ± 0.2 (≈ 2.14 µM) | 0.5 | 0.5 ± 0.1 (≈ 1.43 µM) | 1 | 0.75 ± 0.4 (≈ 2.14 µM) | 1 | 144 to 146 |  |
| CCOC(=O)c1ccc(N=Nc2c(N)nn(C(N)=S)c2N)cc1 [Compound 3c, Ethyl 4-((3,5-diamino-1-carbamothioyl-1H-pyrazol-4-yl)diazenyl)benzoate] | 24.7 | 2 ± 0.2 (≈ 6 µM) | 1 | 0.5 | 0.75 ± 0.5 (≈ 2.25 µM) | 1 ± 0.3 (≈ 3 µM) | 1 | 22.5 | 21.3 | 23.8 | 22.6 | 23.2 | 1 ± 0.3 (≈ 3 µM) | 1 | 0.75 ± 0.2 (≈ 2.25 µM) | 1 | 0.75 ± 0.2 (≈ 2.25 µM) | 0.5 | 280 to 282 |  |
| CCOC(=O)c1ccc(N=Nc2c(N)nn(C(O)=CC#N)c2N)cc1 [Compound 4, Ethyl 4-((3,5-diamino-1-(2-cyano-1-hydroxyvinyl)-1H-pyrazol-4-yl)diazenyl)benzoate] | 22.4 | 2 ± 0.4 (≈ 5.86 µM) | 0.5 | 1 | 0.75 ± 0.3 (≈ 2.2 µM) | 1.5 ± 0.2 (≈ 4.39 µM) | 1 | 21.3 | 22.1 | 24.7 | 23.4 | 20.5 | 2 ± 0.3 (≈ 5.86 µM) | 0.5 | 1 ± 0.4 (≈ 2.93 µM) | 0.5 | 1.5 ± 0.3 (≈ 4.39 µM) | 0.5 | 290 to 292 |  |
